System: human umbilical vein endothelial cells
Assay: Antiproliferative effects on human umbilical vein endothelial cells
Assay type: cell-based

Cc1ccc(C(=O)Nc2ccc(CN3CCN(C)CC3)c(C(F)(F)F)c2)cc1C#Cc1cnc2[nH]ncc2c1 [HQP1351, 3-(2-(1H-pyrazolo[3,4-b]pyridin-5-yl)ethynyl)-4-methyl-N-(4-((4-methylpiperazin-1-yl)methyl)-3-(trifluoromethyl)phenyl)-benzamide]
Antiproliferative effects compared to lenvatinib: more potent antiproliferative effects

From US20230404998A1, “Combination Therapies for Treating Cancer” (ASCENTAGE PHARMA (SUZHOU) CO., LTD., priority 2020, published 2023)
